The record followed here is EP4567115A1, “METHOD FOR PRODUCING RIBOSOME IN CELL-FREE PROTEIN SYNTHESIS SYSTEM” (priority 2022, dated 2024).

Holding throughout (format): biochemical, E. coli
In one assay the test system is native ribosomes. In words: Femtoliter droplet assay, control cell extract with pT7_oSD_or1_LacZ reporter. The settings on record: 100 µM spectinomycin, 5 nM pT7_oSD_or1_LacZ reporter. The protocol:
A mixed oil consisting of light mineral oil (Sigma-Aldrich Corporation, St. Louis, MO, USA), 4.5% sorbitan monooleate (Nacalai Tesque), and 0.5% Triton® X-100 (Nacalai Tesque) was provided. The solution after the second reaction and the mixed oil were mixed and a microtube (Maruemu Corporation, Osaka, Japan) was tapped 20 times to obtain an emulsion. The resulting emulsion was incubated at 37°C for 2 hours to 17 hours, and bright field and fluorescence images of the droplets were acquired over time using a confocal fluorescence microscope LSM700 (Carl Zeiss AG, Oberkochen, Germany). The 488 nm laser was focused using an oil-immersion objective lens (Plan-Apochromat 40x/1.4 Oil DIC M27, Carl Zeiss AG) and oil-immersion oil (ImmersolTM518F, Carl Zeiss AG).
Next, a control experiment was performed using a control cell extract containing only native ribosomes and a pT7_oSD_or1_LacZ reporter. The control cell extract was mixed with 5 nM pT7_oSD_or1_LacZ reporter. In this condition, no fluorescence from native ribosomes was detected in the bulk assay (Fig. 10d).

For the next assay, the system named is endogenous ribosome. As to the kind of experiment: Spectinomycin concentration optimisation, sonicated S12 cell extract with pT7_wtSD_LacZ reporter. To be noted: spectinomycin concentration 5 mM. The protocol: Next, the optimal concentration of spectinomycin was examined. BL21 Star™ (DE3) lacZ::frt was transformed with a plasmid containing rRNA with or without C1192U spectinomycin resistance (SpcR). These bacterial strains were cultured in the presence of 0.1 mM IPTG for 3 hours, and the sonicated S12 cell extract and pT7_wtSD_LacZ reporter were mixed at various spectinomycin concentrations. […] Therefore, in the following experiments, the spectinomycin concentration was set to 5 mM unless otherwise specified.

Assay [1] concerns the target T1, wild-type 30S r-protein S12 (Escherichia coli, UniProt P0A7S3).
T1 construct: made in house; host or cells: cell-free transcription/translation in E. coli S150 cell extract (first reaction)
As to the kind of experiment: Bulk assay of in vitro produced 70S ribosome with wild-type S12 (pT7_oSD_or1_LacZ reporter), with streptomycin. To be noted: wild-type 30S r-protein S12 gene; in the presence of spectinomycin and streptomycin. Here is the method:
(§1) For the second reaction, a second reaction solution was prepared which contained 3.6 µL of the cell extract, an antibiotic (200 µM spectinomycin, 20 µg/mL streptomycin, 3 mM clindamycin, or 240 nM thiostrepton), 3 nM of the reporter plasmid, and 1 mM of IPTG. Note that when the reporter plasmid expressed LacZ, the second reaction solution included 66 µM of 5-chloromethylfluorescein di-β-D-galactopyranoside (CMFDG; Invitrogen, Waltham, MA, USA) as a substrate for LacZ. In the second reaction, 15 µL of the second reaction solution was added to and mixed with 15 µL of the solution after the first reaction, and the signal of the reporter was then measured. […] The signal of the reporter was quantified at λex = 485 nm and λem = 535 nm by using a fluorescence microplate reader, Fluoroskan Ascent FL™ (Thermo Fisher Scientific) or Infinite® 200 PRO (TECAN, Mannedorf, Switzerland).
(§2) A gene encoding a K43T mutant of 30S r-protein S12, which mutant confers streptomycin resistance to ribosomes, was used to produce a 70S ribosome with streptomycin resistance. […] In the second reaction, the translational activity of the ribosomal SSU was then detected by a bulk assay using the pT7_oSD_or1_LacZ reporter in the presence of spectinomycin and in the presence or absence of streptomycin.

Assay [2] deals with T2, 30S r-protein S12 K43T mutant (Escherichia coli, UniProt P0A7S3, K43T).
T2 construct: made in house; host or cells: cell-free transcription/translation in E. coli S150 cell extract (first reaction)
In words: Bulk assay of in vitro produced SSU with S12 K43T mutant, spectinomycin and streptomycin in the second reaction. The settings on record: SSU only; gene encoding 30S r-protein S12 K43T mutant; in the presence of spectinomycin and streptomycin. Here is the method:
as §1
The in vitro production of ribosomal SSU was specifically performed by the following procedure. […] The fluorescence of the reaction solution was measured by a bulk assay or a femtoliter droplet assay. In the bulk assay, the reporter signal was kinetically measured at λex = 485 nm and λem = 535 nm by using a Fluoroskan Ascent FL™ (Thermo Fisher Scientific) or Infinite® 200 PRO (TECAN) at 37°C for 120 minutes, 720 minutes, or 900 minutes. […]

Assay [3] deals with T3, K43T mutant of 30S r-protein S12 (Escherichia coli, UniProt P0A7S3, K43T).
T3 construct: made in house; host or cells: cell-free transcription/translation in E. coli S150 cell extract (first reaction)
As to the kind of experiment: Bulk assay of in vitro produced 70S ribosome with S12 K43T mutant (pT7_oSD_or1_LacZ reporter), with streptomycin. To be noted: gene encoding K43T mutant of 30S r-protein S12; in the presence of spectinomycin and streptomycin. The protocol:
as §1, §2

Assay [4] relates to LSU formed using 32 different LSU r-protein genes excluding r-protein L11 gene. As to the kind of experiment: Bulk assay of in vitro formed LSU lacking r-protein L11 (LacZ reporter) in the presence of thiostrepton. To be noted: in the presence of thiostrepton (120 nM, Fig. 5b); LSU formed without r-protein L11 gene. The protocol: as §1
(§3) The in vitro production of ribosomal LSU was specifically performed by the following procedure. […] The fluorescence of the reaction solution was measured by a bulk assay in the same manner as in the case of the SSU.
(§4) Thiostrepton is known to inactivate an LSU by binding to 50S r-protein L11. […] In the second reaction, the translational activity of the ribosomal LSU was then detected by a bulk assay using the pT7PCONS_EpsA20_wtSD_lacZ reporter in the presence or absence of thiostrepton.

Assay [5] deals with native ribosome (Escherichia coli). In words: Bulk assay of native ribosome translational activity (LacZ reporter) with or without thiostrepton in the second reaction. To be noted: in the presence of thiostrepton (120 nM, Fig. 5a); pT7PCONS_EpsA20_wtSD_lacZ reporter. The protocol: as §1, §3, §4

Regarding `CN[C@@H]1[C@H](O)[C@H](NC)[C@H]2O[C@@]3(O)C(=O)C[C@@H](C)O[C@H]3O[C@@H]2[C@H]1O` [spectinomycin], the “fluorescence derived from native ribosomes” value with native ribosomes is “fluorescence derived from native ribosomes can be removed”. In the assay on endogenous ribosome, the “activity of the endogenous ribosome” value is “strongly suppressed”.

With `[H]/N=C(/N)N[C@H]1[C@H](O)[C@@H](O)[C@H](O[C@@H]2O[C@@H](C)[C@](O)(C=O)[C@H]2O[C@@H]2O[C@@H](CO)[C@H](O)[C@@H](O)[C@@H]2NC)[C@@H](N/C(N)=N\[H])[C@@H]1O` [streptomycin], the “reporter signal (translational activity of the ribosomal SSU)” value in assay [1] is on record as “no signal was detected”; in assay [3], “a signal was detected”. The reporter signal entry in assay [2] is “the reporter signal was not affected”.

Consider `C=C(NC(=O)C(=C)NC(=O)c1csc(C2=N[C@@H]3c4csc(n4)[C@H]4NC(=O)c5csc(n5)[C@H]([C@](C)(O)[C@@H](C)O)NC(=O)[C@H]5CSC(=N5)/C(=C/C)NC(=O)[C@H]([C@@H](C)O)NC(=O)c5csc(n5)[C@]3(CC2)NC(=O)[C@H](C)NC(=O)C(=C)NC(=O)[C@H](C)NC(=O)[C@H]([C@@H](C)CC)N[C@@H]2C=Cc3c([C@H](C)O)cc(nc3[C@H]2O)C(=O)O[C@@H]4C)n1)C(N)=O` [thiostrepton], for which the LSU signal entry in assay [4] is given as “An LSU signal was detected”. Besides, the “signal of LSU (activity of the native ribosome)” value in assay [5] is listed as “the signal of LSU disappeared”.
